From the NIST ThermoML archive (doi:10.1016/j.jct.2016.06.023)
Numbers after ± are expanded uncertainties.

Experiment: mn = molality of the nth substance listed, in mol/kg
Details: 101.3 kPa, Liquid, Vibrating tube method

O=C(O)CC(=O)O [propanedioic acid] + O
mass density (278.15 K, m1 = 0.01001): 1000.48 ± 0.4 kg/m3
mass density (278.15 K, m1 = 0.02001): 1000.91 ± 0.4 kg/m3
mass density (278.15 K, m1 = 0.03): 1001.31 ± 0.4 kg/m3
mass density (278.15 K, m1 = 0.03962): 1001.73 ± 0.4 kg/m3
mass density (278.15 K, m1 = 0.04998): 1002.16 ± 0.4 kg/m3
mass density (278.15 K, m1 = 0.05936): 1002.53 ± 0.4 kg/m3
mass density (278.15 K, m1 = 0.06926): 1002.93 ± 0.4 kg/m3
mass density (278.15 K, m1 = 0.07949): 1003.34 ± 0.4 kg/m3
mass density (278.15 K, m1 = 0.08906): 1003.73 ± 0.4 kg/m3
mass density (278.15 K, m1 = 0.09935): 1004.11 ± 0.4 kg/m3
mass density (278.15 K, m1 = 0.1984): 1008.06 ± 0.4 kg/m3
mass density (278.15 K, m1 = 0.2977): 1011.96 ± 0.4 kg/m3
mass density (278.15 K, m1 = 0.404): 1016 ± 0.4 kg/m3
mass density (278.15 K, m1 = 0.5055): 1019.85 ± 0.4 kg/m3
mass density (278.15 K, m1 = 0.6055): 1023.51 ± 0.4 kg/m3
mass density (278.15 K, m1 = 0.6936): 1026.73 ± 0.4 kg/m3
mass density (278.15 K, m1 = 0.7926): 1030.29 ± 0.41 kg/m3
mass density (278.15 K, m1 = 0.891): 1033.82 ± 0.41 kg/m3
mass density (278.15 K, m1 = 0.9895): 1037.16 ± 0.41 kg/m3
mass density (283.15 K, m1 = 0.01001): 1000.21 ± 0.4 kg/m3
mass density (283.15 K, m1 = 0.02001): 1000.62 ± 0.4 kg/m3
mass density (283.15 K, m1 = 0.03): 1001 ± 0.4 kg/m3
mass density (283.15 K, m1 = 0.03962): 1001.4 ± 0.4 kg/m3
mass density (283.15 K, m1 = 0.04998): 1001.83 ± 0.4 kg/m3
mass density (283.15 K, m1 = 0.05936): 1002.19 ± 0.4 kg/m3
mass density (283.15 K, m1 = 0.06926): 1002.58 ± 0.4 kg/m3
mass density (283.15 K, m1 = 0.07949): 1002.98 ± 0.4 kg/m3
mass density (283.15 K, m1 = 0.08906): 1003.36 ± 0.4 kg/m3
mass density (283.15 K, m1 = 0.09935): 1003.73 ± 0.4 kg/m3
mass density (283.15 K, m1 = 0.1984): 1007.6 ± 0.4 kg/m3
mass density (283.15 K, m1 = 0.2977): 1011.4 ± 0.4 kg/m3
mass density (283.15 K, m1 = 0.404): 1015.36 ± 0.4 kg/m3
mass density (283.15 K, m1 = 0.5055): 1019.12 ± 0.4 kg/m3
mass density (283.15 K, m1 = 0.6055): 1022.71 ± 0.4 kg/m3
mass density (283.15 K, m1 = 0.6936): 1025.86 ± 0.4 kg/m3
mass density (283.15 K, m1 = 0.7926): 1029.35 ± 0.4 kg/m3
mass density (283.15 K, m1 = 0.891): 1032.8 ± 0.41 kg/m3
mass density (283.15 K, m1 = 0.9895): 1036.1 ± 0.41 kg/m3
mass density (288.15 K, m1 = 0.01001): 999.61 ± 0.4 kg/m3
mass density (288.15 K, m1 = 0.02001): 1000.03 ± 0.4 kg/m3
mass density (288.15 K, m1 = 0.03): 1000.4 ± 0.4 kg/m3
mass density (288.15 K, m1 = 0.03962): 1000.79 ± 0.4 kg/m3
mass density (288.15 K, m1 = 0.04998): 1001.21 ± 0.4 kg/m3
mass density (288.15 K, m1 = 0.05936): 1001.57 ± 0.4 kg/m3
mass density (288.15 K, m1 = 0.06926): 1001.95 ± 0.4 kg/m3
mass density (288.15 K, m1 = 0.07949): 1002.34 ± 0.4 kg/m3
mass density (288.15 K, m1 = 0.08906): 1002.71 ± 0.4 kg/m3
mass density (288.15 K, m1 = 0.09935): 1003.07 ± 0.4 kg/m3
mass density (288.15 K, m1 = 0.1984): 1006.87 ± 0.4 kg/m3
mass density (288.15 K, m1 = 0.2977): 1010.6 ± 0.4 kg/m3
mass density (288.15 K, m1 = 0.404): 1014.47 ± 0.4 kg/m3
mass density (288.15 K, m1 = 0.5055): 1018.15 ± 0.4 kg/m3
mass density (288.15 K, m1 = 0.6055): 1021.67 ± 0.4 kg/m3
mass density (288.15 K, m1 = 0.6936): 1024.77 ± 0.4 kg/m3
mass density (288.15 K, m1 = 0.7926): 1028.19 ± 0.4 kg/m3
mass density (288.15 K, m1 = 0.891): 1031.58 ± 0.4 kg/m3
mass density (288.15 K, m1 = 0.9895): 1034.82 ± 0.41 kg/m3
mass density (293.15 K, m1 = 0.01001): 998.7 ± 0.4 kg/m3
mass density (293.15 K, m1 = 0.02001): 999.1 ± 0.4 kg/m3
mass density (293.15 K, m1 = 0.03): 999.47 ± 0.4 kg/m3
mass density (293.15 K, m1 = 0.03962): 999.85 ± 0.4 kg/m3
mass density (293.15 K, m1 = 0.04998): 1000.27 ± 0.4 kg/m3
mass density (293.15 K, m1 = 0.05936): 1000.61 ± 0.4 kg/m3
mass density (293.15 K, m1 = 0.06926): 1000.99 ± 0.4 kg/m3
mass density (293.15 K, m1 = 0.07949): 1001.37 ± 0.4 kg/m3
mass density (293.15 K, m1 = 0.08906): 1001.73 ± 0.4 kg/m3
mass density (293.15 K, m1 = 0.09935): 1002.12 ± 0.4 kg/m3
mass density (293.15 K, m1 = 0.1984): 1005.8 ± 0.4 kg/m3
mass density (293.15 K, m1 = 0.2977): 1009.46 ± 0.4 kg/m3
mass density (293.15 K, m1 = 0.404): 1013.26 ± 0.4 kg/m3
mass density (293.15 K, m1 = 0.5055): 1016.89 ± 0.4 kg/m3
mass density (293.15 K, m1 = 0.6055): 1020.35 ± 0.4 kg/m3
mass density (293.15 K, m1 = 0.6936): 1023.39 ± 0.4 kg/m3
mass density (293.15 K, m1 = 0.7926): 1026.76 ± 0.4 kg/m3
mass density (293.15 K, m1 = 0.891): 1030.1 ± 0.4 kg/m3
mass density (293.15 K, m1 = 0.9895): 1033.27 ± 0.41 kg/m3
mass density (298.15 K, m1 = 0.01001): 997.52 ± 0.4 kg/m3
mass density (298.15 K, m1 = 0.02001): 997.93 ± 0.4 kg/m3
mass density (298.15 K, m1 = 0.03): 998.3 ± 0.4 kg/m3
mass density (298.15 K, m1 = 0.03962): 998.66 ± 0.4 kg/m3
mass density (298.15 K, m1 = 0.04998): 999.07 ± 0.4 kg/m3
mass density (298.15 K, m1 = 0.05936): 999.4 ± 0.4 kg/m3
mass density (298.15 K, m1 = 0.06926): 999.78 ± 0.4 kg/m3
mass density (298.15 K, m1 = 0.07949): 1000.15 ± 0.4 kg/m3
mass density (298.15 K, m1 = 0.08906): 1000.52 ± 0.4 kg/m3
mass density (298.15 K, m1 = 0.09935): 1000.89 ± 0.4 kg/m3
mass density (298.15 K, m1 = 0.1984): 1004.55 ± 0.4 kg/m3
mass density (298.15 K, m1 = 0.2977): 1008.15 ± 0.4 kg/m3
mass density (298.15 K, m1 = 0.404): 1011.88 ± 0.4 kg/m3
mass density (298.15 K, m1 = 0.5055): 1015.45 ± 0.4 kg/m3
mass density (298.15 K, m1 = 0.6055): 1018.85 ± 0.4 kg/m3
mass density (298.15 K, m1 = 0.6936): 1021.85 ± 0.4 kg/m3
mass density (298.15 K, m1 = 0.7926): 1025.16 ± 0.4 kg/m3
mass density (298.15 K, m1 = 0.891): 1028.44 ± 0.4 kg/m3
mass density (298.15 K, m1 = 0.9895): 1031.58 ± 0.4 kg/m3
mass density (303.15 K, m1 = 0.01001): 996.14 ± 0.4 kg/m3
mass density (303.15 K, m1 = 0.02001): 996.53 ± 0.4 kg/m3
mass density (303.15 K, m1 = 0.03): 996.9 ± 0.4 kg/m3
mass density (303.15 K, m1 = 0.03962): 997.28 ± 0.4 kg/m3
mass density (303.15 K, m1 = 0.04998): 997.66 ± 0.4 kg/m3
mass density (303.15 K, m1 = 0.05936): 997.99 ± 0.4 kg/m3
mass density (303.15 K, m1 = 0.06926): 998.37 ± 0.4 kg/m3
mass density (303.15 K, m1 = 0.07949): 998.72 ± 0.4 kg/m3
mass density (303.15 K, m1 = 0.08906): 999.08 ± 0.4 kg/m3
mass density (303.15 K, m1 = 0.09935): 999.45 ± 0.4 kg/m3
mass density (303.15 K, m1 = 0.1984): 1003.05 ± 0.4 kg/m3
mass density (303.15 K, m1 = 0.2977): 1006.6 ± 0.4 kg/m3
mass density (303.15 K, m1 = 0.404): 1010.27 ± 0.4 kg/m3
mass density (303.15 K, m1 = 0.5055): 1013.79 ± 0.4 kg/m3
mass density (303.15 K, m1 = 0.6055): 1017.14 ± 0.4 kg/m3
mass density (303.15 K, m1 = 0.6936): 1020.08 ± 0.4 kg/m3
mass density (303.15 K, m1 = 0.7926): 1023.35 ± 0.4 kg/m3
mass density (303.15 K, m1 = 0.891): 1026.58 ± 0.4 kg/m3
mass density (303.15 K, m1 = 0.9895): 1029.66 ± 0.4 kg/m3
mass density (308.15 K, m1 = 0.01001): 994.51 ± 0.4 kg/m3
mass density (308.15 K, m1 = 0.02001): 994.89 ± 0.4 kg/m3
mass density (308.15 K, m1 = 0.03): 995.23 ± 0.4 kg/m3
mass density (308.15 K, m1 = 0.03962): 995.6 ± 0.4 kg/m3
mass density (308.15 K, m1 = 0.04998): 996 ± 0.4 kg/m3
mass density (308.15 K, m1 = 0.05936): 996.33 ± 0.4 kg/m3
mass density (308.15 K, m1 = 0.06926): 996.69 ± 0.4 kg/m3
mass density (308.15 K, m1 = 0.07949): 997.06 ± 0.4 kg/m3
mass density (308.15 K, m1 = 0.08906): 997.4 ± 0.4 kg/m3
mass density (308.15 K, m1 = 0.09935): 997.74 ± 0.4 kg/m3
mass density (308.15 K, m1 = 0.1984): 1001.28 ± 0.4 kg/m3
mass density (308.15 K, m1 = 0.2977): 1004.77 ± 0.4 kg/m3
mass density (308.15 K, m1 = 0.404): 1008.39 ± 0.4 kg/m3
mass density (308.15 K, m1 = 0.5055): 1011.84 ± 0.4 kg/m3
mass density (308.15 K, m1 = 0.6055): 1015.15 ± 0.4 kg/m3
mass density (308.15 K, m1 = 0.6936): 1018.07 ± 0.4 kg/m3
mass density (308.15 K, m1 = 0.7926): 1021.29 ± 0.4 kg/m3
mass density (308.15 K, m1 = 0.891): 1024.47 ± 0.4 kg/m3
mass density (308.15 K, m1 = 0.9895): 1027.51 ± 0.4 kg/m3
